# Assays:
# Test in all cases: relative viability (nuclei count vs DMSO), 5 days (fraction); higher = more cells survive
# NCI-H2347 = test system: NCI-H2347
# In short: (§1)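 After 5 days of treatment, lung cancer cells in 1536-well plates were fixed and stained in a single step (final 0.05% Triton X-100, 1% formaldehyde, 1 ug/ml Hoechst) and their nuclei counted on 4× images. Treatment had been applied by pin tool the day after seeding as one drug alone or as a fixed anchor-drug dose with five library-drug doses (not always all listed) in √10 steps. Relative viability is the nuclei count of treated wells divided by that of vehicle wells, and values are medians of duplicate plates.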
# EPLC-272H = test system: EPLC-272H
# In short: as §1
# H3255 = test system: H3255
# In short: as §1
# NCI-H650 = test system: NCI-H650
# In short: as §1
# 201T = test system: 201T
# In short: as §1
# COR-L 105 = test system: COR-L 105
# In short: as §1
# NCI-H2087 = test system: NCI-H2087
# In short: as §1
# NCI-H2126 = test system: NCI-H2126
# In short: as §1
# NCI-H2405 = test system: NCI-H2405
# In short: as §1
# HCC-78 = test system: HCC-78
# In short: as §1
# LC-2-ad = test system: LC-2-ad
# In short: as §1
# NCI-H1666 = test system: NCI-H1666
# In short: as §1
# LCLC-97TM1 = test system: LCLC-97TM1
# In short: as §1
# NCI-H23 = test system: NCI-H23
# In short: as §1
# NCI-H322M = test system: NCI-H322M
# In short: as §1
# HCC-827 = test system: HCC-827
# In short: as §1
# NCI-H1915 = test system: NCI-H1915
# In short: as §1
# NCI-H520 = test system: NCI-H520
# In short: as §1
# NCI-H661 = test system: NCI-H661
# In short: as §1
# PC-14 = test system: PC-14
# In short: as §1
# RERF-LC-KJ = test system: RERF-LC-KJ
# In short: as §1
# NCI-H647 = test system: NCI-H647
# In short: as §1
structure (smiles),measurement,setting,value
NC(=O)Nc1cc(-c2cccc(F)c2)sc1C(=O)N[C@H]1CCCNC1 [AZD7762] + C[C@]1(O)C[C@@H](c2nc(-c3ccc4ccc(-c5ccccc5)nc4c3)c3c(N)nccn32)C1 [Linsitinib] (partner 1 µM),relative viability,NCI-H2347; first compound 0.01 µM,1.09
same,relative viability,NCI-H2347; first compound 0.03162 µM,1.01
same,relative viability,NCI-H2347; first compound 0.1 µM,1.15
same,relative viability,NCI-H2347; first compound 0.3162 µM,1.1
same,relative viability,NCI-H2347; first compound 1 µM,1.04
same,relative viability,EPLC-272H; first compound 0.01 µM,1.15
same,relative viability,EPLC-272H; first compound 0.03162 µM,1.28
same,relative viability,EPLC-272H; first compound 0.1 µM,1.23
same,relative viability,EPLC-272H; first compound 0.3162 µM,1.19
same,relative viability,EPLC-272H; first compound 1 µM,0.871
same,relative viability,H3255; first compound 0.01 µM,0.931
same,relative viability,H3255; first compound 0.03162 µM,1.04
same,relative viability,H3255; first compound 0.1 µM,0.969
same,relative viability,H3255; first compound 0.3162 µM,0.947
same,relative viability,H3255; first compound 1 µM,0.817
same,relative viability,NCI-H650; first compound 0.01 µM,1.01
same,relative viability,NCI-H650; first compound 0.03162 µM,0.984
same,relative viability,NCI-H650; first compound 0.1 µM,0.842
same,relative viability,NCI-H650; first compound 0.3162 µM,0.843
same,relative viability,NCI-H650; first compound 1 µM,0.811
same,relative viability,201T; first compound 0.01 µM,1.04
same,relative viability,201T; first compound 0.03162 µM,1.06
same,relative viability,201T; first compound 0.1 µM,1.1
same,relative viability,201T; first compound 0.3162 µM,1.09
same,relative viability,201T; first compound 1 µM,0.969
same,relative viability,COR-L 105; first compound 0.01 µM,0.855
same,relative viability,COR-L 105; first compound 0.03162 µM,0.921
same,relative viability,COR-L 105; first compound 0.1 µM,0.748
same,relative viability,COR-L 105; first compound 0.3162 µM,0.662
same,relative viability,COR-L 105; first compound 1 µM,0.393
same,relative viability,NCI-H2087; first compound 0.01 µM,0.995
same,relative viability,NCI-H2087; first compound 0.03162 µM,0.986
same,relative viability,NCI-H2087; first compound 0.1 µM,1.07
same,relative viability,NCI-H2087; first compound 0.3162 µM,1.03
same,relative viability,NCI-H2087; first compound 1 µM,1.17
same,relative viability,NCI-H2126; first compound 0.01 µM,0.711
same,relative viability,NCI-H2126; first compound 0.03162 µM,0.758
same,relative viability,NCI-H2126; first compound 0.1 µM,0.763
same,relative viability,NCI-H2126; first compound 0.3162 µM,0.706
same,relative viability,NCI-H2126; first compound 1 µM,0.805
same,relative viability,NCI-H2405; first compound 0.01 µM,1
same,relative viability,NCI-H2405; first compound 0.03162 µM,0.929
same,relative viability,NCI-H2405; first compound 0.1 µM,0.86
same,relative viability,NCI-H2405; first compound 0.3162 µM,0.655
same,relative viability,NCI-H2405; first compound 1 µM,0.402
same,relative viability,HCC-78; first compound 0.01 µM,0.624
same,relative viability,HCC-78; first compound 0.03162 µM,0.553
same,relative viability,HCC-78; first compound 0.1 µM,0.581
same,relative viability,HCC-78; first compound 0.3162 µM,0.519
same,relative viability,HCC-78; first compound 1 µM,0.345
same,relative viability,LC-2-ad; first compound 0.01 µM,0.854
same,relative viability,LC-2-ad; first compound 0.03162 µM,0.929
same,relative viability,LC-2-ad; first compound 0.1 µM,0.787
same,relative viability,LC-2-ad; first compound 0.3162 µM,0.674
same,relative viability,LC-2-ad; first compound 1 µM,0.437
same,relative viability,NCI-H1666; first compound 0.01 µM,0.845
same,relative viability,NCI-H1666; first compound 0.03162 µM,1.02
same,relative viability,NCI-H1666; first compound 0.1 µM,1.05
same,relative viability,NCI-H1666; first compound 0.3162 µM,0.868
same,relative viability,NCI-H1666; first compound 1 µM,0.565
same,relative viability,LCLC-97TM1; first compound 0.01 µM,0.179
same,relative viability,LCLC-97TM1; first compound 0.03162 µM,0.209
same,relative viability,LCLC-97TM1; first compound 0.1 µM,0.214
same,relative viability,LCLC-97TM1; first compound 0.3162 µM,0.26
same,relative viability,LCLC-97TM1; first compound 1 µM,0.189
same,relative viability,NCI-H23; first compound 0.01 µM,0.659
same,relative viability,NCI-H23; first compound 0.03162 µM,0.631
same,relative viability,NCI-H23; first compound 0.1 µM,0.517
same,relative viability,NCI-H23; first compound 0.3162 µM,0.517
same,relative viability,NCI-H23; first compound 1 µM,0.252
same,relative viability,NCI-H322M; first compound 0.01 µM,1.02
same,relative viability,NCI-H322M; first compound 0.03162 µM,1.03
same,relative viability,NCI-H322M; first compound 0.1 µM,0.92
same,relative viability,NCI-H322M; first compound 0.3162 µM,0.987
same,relative viability,NCI-H322M; first compound 1 µM,0.84
same,relative viability,HCC-827; first compound 0.01 µM,1.06
same,relative viability,HCC-827; first compound 0.03162 µM,0.994
same,relative viability,HCC-827; first compound 0.1 µM,0.922
same,relative viability,HCC-827; first compound 0.3162 µM,0.961
same,relative viability,HCC-827; first compound 1 µM,0.863
same,relative viability,NCI-H1915; first compound 0.01 µM,1.09
same,relative viability,NCI-H1915; first compound 0.03162 µM,1.1
same,relative viability,NCI-H1915; first compound 0.1 µM,1.19
same,relative viability,NCI-H1915; first compound 0.3162 µM,1.2
same,relative viability,NCI-H1915; first compound 1 µM,1.06
same,relative viability,NCI-H520; first compound 0.01 µM,1.16
same,relative viability,NCI-H520; first compound 0.03162 µM,0.893
same,relative viability,NCI-H520; first compound 0.1 µM,0.848
same,relative viability,NCI-H520; first compound 0.3162 µM,0.551
same,relative viability,NCI-H520; first compound 1 µM,0.389
same,relative viability,NCI-H661; first compound 0.01 µM,0.681
same,relative viability,NCI-H661; first compound 0.03162 µM,0.546
same,relative viability,NCI-H661; first compound 0.1 µM,0.444
same,relative viability,NCI-H661; first compound 0.3162 µM,0.501
same,relative viability,NCI-H661; first compound 1 µM,0.293
same,relative viability,PC-14; first compound 0.01 µM,0.975
same,relative viability,PC-14; first compound 0.03162 µM,0.994
same,relative viability,PC-14; first compound 0.1 µM,0.995
same,relative viability,PC-14; first compound 0.3162 µM,0.891
same,relative viability,PC-14; first compound 1 µM,0.425
same,relative viability,RERF-LC-KJ; first compound 0.01 µM,0.923
same,relative viability,RERF-LC-KJ; first compound 0.03162 µM,0.879
same,relative viability,RERF-LC-KJ; first compound 0.1 µM,0.849
same,relative viability,RERF-LC-KJ; first compound 0.3162 µM,0.908
same,relative viability,RERF-LC-KJ; first compound 1 µM,0.842
same,relative viability,NCI-H647; first compound 0.01 µM,1.37
same,relative viability,NCI-H647; first compound 0.03162 µM,1.3
same,relative viability,NCI-H647; first compound 0.1 µM,1.05
same,relative viability,NCI-H647; first compound 0.3162 µM,0.462
same,relative viability,NCI-H647; first compound 1 µM,0.153
